Like-named read-outs stand apart in the source and are kept apart here. Values belong to the compound of their own block, whether it stands above or below them.
Columns and labels:
[1] = biological target: T1, p53 Y220C mutant protein (amino acid residues 94-293) (Homo sapiens, UniProt P04637, Y220C); test: Surface Plasmon Resonance (SPR) assay, Kd_kinetic; type: binding; settings: read-out: SPR P53 Y220C KD kinetic
T1 construct: p53 Y220C mutant protein (amino acid residues 94-293)
In short: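 Kinetic dissociation constants derived by 1:1 model fit of SPR data acquired at 16 or 20 °C, pH 7.5 Tris/NaCl running buffer with 1% DMSO.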

[2] = biological target: T1, p53 Y220C mutant protein (amino acid residues 94-293); test: Thermal Shift Assay (TSA), dTM; type: binding; settings: for ΔTm at 100 µM: 100 uM compound; for ΔTm at 10 µM: 10 uM compound
In short: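 Recombinant p53 Y220C core (residues 94-293) at 5 μM was incubated with 10 μM or 100 μM compound for 3 hours at 20 °C in 20 mM HEPES pH7.4, 100 mM NaCl, 0.01% Pluronic F-127, 1% DMSO with 400-fold diluted Sypro Orange. Melting was followed from 30 °C to 50 °C at 0.03 °C/second, and TM came from a Boltzmann two-state fit.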

[3] = biological target: p53 Y220C (Homo sapiens, UniProt P04637, Y220C); test: Luciferase Reporter Assay (Luc), p53 response element, NClH1299 cells with inducible p53 Y220C; type: cell-based; settings: 6 hour; for AC50: read-out: Luc P53 Y220C AC50
In short: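 Luminescence readout (One-Glo, 5 min shaking at RT, read at once) after 6 h compound exposure; cells pre-induced 24 h with 0.5 ug/mL doxycycline, 5,000/well.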

[4] = system: H1299 p53 Y220C; test: Cell Proliferation Assay (CellTiter-Glo, CTG), H1299 p53 Y220C (NClH1299-inducible p53 Y220C); type: cell-based; settings: Homo sapiens, NCI-H1299, 120 h, 5 days
In short: (§1)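 Tet-One inducible p53 Y220C or R273H constructs were stably introduced into NCI-H1299 by lentiviral transduction; NUGC3 was used as is. Cells (250-500 per well) were exposed to compound for 5 days, then CellTiter-Glo was added for 10 min at room temperature and IC50 was calculated from luminescence.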

[5] = system: H1299 p53 R273H; test: Cell Proliferation Assay (CellTiter-Glo, CTG), H1299 p53 R273H (NClH1299-inducible p53 R273H); type: cell-based; settings: Homo sapiens, NCI-H1299, 120 h, 5 days
In short: as §1

[6] = system: NUGC3 p53 Y220C; test: Cell Proliferation Assay (CellTiter-Glo, CTG), NUGC3 p53 Y220C; type: cell-based; settings: Homo sapiens, NUGC-3, 120 h, 5 days
In short: as §1

[7] = thermal shift, read-out: TSA P53 Y220C dTM (100 uM)
[8] = luciferase reporter, NClH1299 inducible p53 Y220C, 10 uM tool compound as positive control
[9] = luciferase reporter, NClH1299 inducible p53 Y220C
[10] = p53 Y220C, read-out: TSA P53 Y220C dTM
[11] = AC50, luciferase reporter, NClH1299 inducible p53 Y220C
[12] = Emax, luciferase reporter, NClH1299 inducible p53 Y220C
[13] = NClH1299-inducible p53 Y220C cells, CellTiter-Glo
[14] = NClH1299-inducible p53 R273H cells, CellTiter-Glo
[15] = thermal shift, read-out: TSA P53 Y220C dTM (10 uM)

Compound: COc1cc(C(=O)NC2CC2)ccc1NCC#Cc1nc2c(N[C@@H]3CCN(C)C[C@@H]3F)cccn2c1CC(F)(F)F [Example 49, N-cyclopropyl-4-{[3-(8-{[(3S,4R)-3-fluoro-1-methylpiperidin-4-yl]amino}-3-(2,2,2-trifluoroethyl)imidazo[1,2-a]pyridin-2-yl)prop-2-yn-1-yl]amino}-3-methoxybenzamide]
Kd ([1]; SPR, kinetic KD, p53 Y220C): 10 to 100 nM
ΔTm at 100 µM [2, 7]: ≥ 10 °C
Emax [3, 8]: 70 to 80%
AC50 [3, 9]: 750 to 1500 nM
IC50 ([4]; CellTiter-Glo, H1299 p53 Y220C): 750 to 1500 nM
IC50 ([5]; CellTiter-Glo, H1299 p53 R273H): 8 to 10 µM
IC50 ([6]; CellTiter-Glo, NUGC3 p53 Y220C): 750 to 1500 nM

Compound: C[C@H](O)C#Cc1nc2c(N[C@@H]3CCN(C)C[C@@H]3F)cccn2c1CC(F)(F)F [Example 71, (2S)-4-(8-{[(3S,4R)-3-fluoro-1-methylpiperidin-4-yl]amino}-3-(2,2,2-trifluoroethyl)imidazo[1,2-a]pyridin-2-yl)but-3-yn-2-ol]
Kd ([1]; SPR, kinetic KD, p53 Y220C): 100 to 1000 nM
ΔTm at 100 µM [2, 7]: 5 to 10 °C
Emax [3, 8]: < 70%
AC50 [3, 9]: > 3000 nM
IC50 ([4]; CellTiter-Glo, H1299 p53 Y220C): > 3000 nM
IC50 ([5]; CellTiter-Glo, H1299 p53 R273H): ≥ 10 µM
IC50 ([6]; CellTiter-Glo, NUGC3 p53 Y220C): > 3000 nM

Compound: CNC(=O)c1ccc(NCC#Cc2nc3c(N[C@@H]4CCN(C)C[C@@H]4F)cccn3c2CC(F)(F)F)c(C(F)(F)F)c1 [Example 54, 4-{[3-(8-{[(3S,4R)-3-fluoro-1-methylpiperidin-4-yl]amino}-3-(2,2,2-trifluoroethyl)imidazo[1,2-a]pyridin-2-yl)prop-2-yn-1-yl]amino}-N-methyl-3-(trifluoromethyl)benzamide]
Kd ([1]; SPR, kinetic KD, p53 Y220C): 10 to 100 nM
ΔTm at 100 µM [2, 7]: ≥ 10 °C
Emax [3, 8]: 70 to 80%
AC50 [3, 9]: > 3000 nM
IC50 ([4]; CellTiter-Glo, H1299 p53 Y220C): > 3000 nM
IC50 ([5]; CellTiter-Glo, H1299 p53 R273H): ≥ 10 µM
IC50 ([6]; CellTiter-Glo, NUGC3 p53 Y220C): > 3000 nM

Compound: COc1cc(S(=O)(=O)C2CC2)ccc1NCC#Cc1nc2c(N[C@@H]3CCN(C)C[C@@H]3F)cccn2c1CC(F)(F)F [Example 67, (3S,4R)—N-[2-(3-{[4-(cyclopropanesulfonyl)-2-methoxyphenyl]amino}prop-1-yn-1-yl)-3-(2,2,2-trifluoroethyl)imidazo[1,2-a]pyridin-8-yl]-3-fluoro-1-methylpiperidin-4-amine]
Kd ([1]; SPR, kinetic KD, p53 Y220C): < 10 nM
ΔTm at 100 µM [2, 7]: ≥ 10 °C
Emax [3, 8]: 70 to 80%
AC50 [3, 9]: < 750 nM
IC50 ([4]; CellTiter-Glo, H1299 p53 Y220C): < 750 nM
IC50 ([5]; CellTiter-Glo, H1299 p53 R273H): 5 to 8 µM
IC50 ([6]; CellTiter-Glo, NUGC3 p53 Y220C): < 750 nM

Compound: COC[C@@H](O)CN1CCC(Nc2cccn3c(CC(F)(F)F)c(C#CCNc4ccc(S(C)(=O)=O)cc4OC)nc23)CC1 [Example 12, (2S)-1-{4-[(2-{3-[(4-methanesulfonyl-2-methoxyphenyl)amino]prop-1-yn-1-yl}-3-(2,2,2-trifluoroethyl)imidazo[1,2-a]pyridin-8-yl)amino]piperidin-1-yl}-3-methoxypropan-2-ol]
Kd ([1]; SPR, kinetic KD, p53 Y220C): 10 to 100 nM
ΔTm at 100 µM [2, 7]: ≥ 10 °C
Emax [3, 8]: 70 to 80%
AC50 [3, 9]: 1500 to 3000 nM
IC50 ([4]; CellTiter-Glo, H1299 p53 Y220C): 1500 to 3000 nM
IC50 ([5]; CellTiter-Glo, H1299 p53 R273H): ≥ 10 µM
IC50 ([6]; CellTiter-Glo, NUGC3 p53 Y220C): 750 to 1500 nM

Compound: CNc1cc(NC2CCN(C)CC2)c2nc(C#CCNc3ccc(S(C)(=O)=O)cc3OC)c(CC(F)(F)F)n2c1 [Example 33, 2-{3-[(4-methanesulfonyl-2-methoxyphenyl)amino]prop-1-yn-1-yl}-N6-methyl-N8-(1-methylpiperidin-4-yl)-3-(2,2,2-trifluoroethyl) imidazo[1,2-a]pyridine-6,8-diamine]
Kd ([1]; SPR, kinetic KD, p53 Y220C): 10 to 100 nM
ΔTm at 100 µM [2, 7]: 1 to 5 °C
Emax [3, 8]: < 70%
AC50 [3, 9]: > 3000 nM
IC50 ([4]; CellTiter-Glo, H1299 p53 Y220C): > 3000 nM
IC50 ([5]; CellTiter-Glo, H1299 p53 R273H): ≥ 10 µM
IC50 ([6]; CellTiter-Glo, NUGC3 p53 Y220C): > 3000 nM

Continued, in another order:

Kd ([1]; SPR, p53 Y220C): < 10 nM
ΔTm at 10 µM [2, 10]: ≥ 10 °C
ΔTm at 100 µM [2, 10]: ≥ 10 °C
AC50 [3, 11]: < 750 nM
Emax [3, 12]: 80 to 90%
IC50 [4, 13]: < 750 nM
IC50 [5, 14]: 5 to 8 µM
Compound: CNC(=O)c1ccc(OC)c(NCC#Cc2nn3c(N[C@@H]4CCNC[C@@H]4F)cccc3c2SC(F)(F)F)c1 [Example 236]
IC50 ([6]; NUGC3 cells, CellTiter-Glo): < 750 nM

Kd ([1]; SPR, kinetic KD, p53 Y220C): < 10 nM
ΔTm at 10 µM [2, 15]: ≥ 10 °C
ΔTm at 100 µM [2, 7]: ≥ 10 °C
Emax [3, 8]: 70 to 80%
AC50 [3, 9]: < 750 nM
IC50 ([4]; CellTiter-Glo, H1299 p53 Y220C): < 750 nM
IC50 ([5]; CellTiter-Glo, H1299 p53 R273H): ≥ 10 µM
Compound: CNC(=O)c1cc(NCC#Cc2nc3c(N[C@@H]4CCN(C)C[C@@H]4F)cccn3c2SC(F)(F)F)c(OC)cn1 [Example 148]
IC50 ([6]; CellTiter-Glo, NUGC3 p53 Y220C): < 750 nM

Kd ([1]; SPR, kinetic KD, p53 Y220C): 10 to 100 nM
ΔTm at 100 µM [2, 7]: ≥ 10 °C
Emax [3, 8]: < 70%
AC50 [3, 9]: 1500 to 3000 nM
IC50 ([4]; CellTiter-Glo, H1299 p53 Y220C): 750 to 1500 nM
IC50 ([5]; CellTiter-Glo, H1299 p53 R273H): 5 to 8 µM
Compound: COCCN1CCC(Nc2cccn3c(CC(F)(F)F)c(C#CCNc4ccc(S(C)(=O)=O)cc4OC)nc23)CC1 [Example 113, N-(2-{3-[(4-methanesulfonyl-2-methoxyphenyl)amino]prop-1-yn-1-yl}-3-(2,2,2-trifluoroethyl)imidazo[1,2-a]pyridin-8-yl)-1-(2-methoxyethyl)piperidin-4-amine]
IC50 ([6]; CellTiter-Glo, NUGC3 p53 Y220C): 750 to 1500 nM

Kd ([1]; SPR, p53 Y220C): 10 to 100 nM
ΔTm at 10 µM ([2]; read-out: TSA P53 Y220C dTM): 5 to 10 °C
ΔTm at 100 µM ([2]; read-out: TSA P53 Y220C dTM): 5 to 10 °C
AC50 ([3]; AC50, NClH1299 cells with inducible p53 Y220C): > 3000 nM
Emax ([3]; Emax, NClH1299 cells with inducible p53 Y220C, 10 uM tool compound as positive control): < 70%
IC50 ([4]; NClH1299-inducible p53 Y220C cells): > 3000 nM
IC50 ([5]; NClH1299-inducible p53 R273H cells): ≥ 10 µM
Compound: CN1CC[C@@H](Nc2cccn3c(SC(F)(F)F)c(-c4noc(CNC(=O)C5CC5)n4)nc23)[C@@H](F)C1 [Example 458]
IC50 ([6]; NUGC3 cells): > 3000 nM

Kd [1]: < 10 nM
ΔTm at 10 µM [2, 10]: ≥ 10 °C
AC50 [3, 11]: < 750 nM
Emax [3, 12]: > 90%
IC50 [4, 13]: < 750 nM
IC50 [5, 14]: 5 to 8 µM
Compound: COc1cc(S(C)(=O)=O)ccc1NCC#Cc1cc2c(N[C@@H]3CCN(C)C[C@@H]3F)nccn2c1SC(F)(F)F [Example 342]
IC50 ([6]; NUGC3 cells, CellTiter-Glo): < 750 nM

Kd ([1]; SPR, kinetic KD, p53 Y220C): 10 to 100 nM
ΔTm at 10 µM [2, 15]: 5 to 10 °C
ΔTm at 100 µM [2, 7]: 5 to 10 °C
Emax [3, 8]: 70 to 80%
AC50 [3, 9]: > 3000 nM
IC50 ([4]; CellTiter-Glo, H1299 p53 Y220C): > 3000 nM
IC50 ([5]; CellTiter-Glo, H1299 p53 R273H): ≥ 10 µM
Compound: CNC(=O)c1ccc(NCC#Cc2nc3c(N[C@H]4CCc5ncnn5C4)cccn3c2SC(F)(F)F)c(OC)c1 (stereo in doubt) [Example 189]
IC50 ([6]; CellTiter-Glo, NUGC3 p53 Y220C): > 3000 nM

From patent US20260374766A1, “METHODS FOR TREATING CANCER” (Antares Therapeutics, Inc., priority 2022, published 2026)
